In patent publication US11180459B2, “Bacterial efflux pump inhibitors” (RUTGERS, THE STATE UNIVERSITY OF NEW JERSEY, priority 2017, dated 2021):
Where a name gives a salt, the structure may show the parent alone. Read-outs that look alike come from different tables or passages of the source. One block for each molecule: values may come before it.

Legend:
Assay type in all cases: cell-based
[1] = system: Pseudomonas aeruginosa ATCC 27853; assay: Standard EPI assay: levofloxacin MIC with EPI; conditions: P. aeruginosa ATCC 27853; for Enhanced Activity in P. aeruginosa (fold enhancement of antibiotic activity / EPI concentration): levofloxacin as antibiotic
Procedure: (§1) MIC assays were conducted in accordance with Clinical and Laboratory Standards Institute (CLSI) guidelines for broth microdilution.
(§2) The EPI assay for the purposes of these studies represents a MIC assay in which the MIC of the antibiotic against the bacteria is tested in the presence of an experimental efflux pump inhibitor (EPI). The highest concentration of the EPI present in the assay typically is ½ of the intrinsic MIC of the compound. If the intrinsic MIC of the EPI is greater than 100 μg/mL, the EPI assay was tested with 50 μg/mL. Using serial dilutions of the EPI, its enhancement of antibiotic activity was then evaluated. The relative EPI activity was decided by comparing the MIC of the antibiotic in the presence of the EPI compound with the intrinsic MIC of the antibiotic alone. For the evaluation of the efficacy of an EPI against bacteria that were pre-exposed to an antibiotic, the inoculum of bacteria that used was developed from a bacterial culture isolated as a single colony following exposure at ½ the MIIC of the antibiotic (so as to induce efflux pump expression), was to be used in combination with the EPI.
(§3) In our standard EPI assay, the MIC of the test antibiotic is determined in the absence and presence of sub-inhibitory concentrations of the EPI. Initially, the sub-inhibitory concentration used was ½×MIC of the EPI. […] The MIC of levofloxacin against P. aeruginosa ATCC 27853 in the absence of EPI is 1 μg/mL. […] Similar methodology was employed to examine the synergy with Escherichia coli ATCC 25922 in the presence of varied concentrations of these EPIs using clarithromycin as the antibiotic.

[2] = system: Escherichia coli ATCC 25922; assay: Standard EPI assay: clarithromycin MIC with EPI; conditions: clarithromycin as antibiotic, E. coli ATCC 25922
Procedure: as §1, §2, §3

P. aeruginosa ATCC 27853 = assay: Intrinsic MIC assay (broth microdilution); conditions: Pseudomonas aeruginosa
Procedure: as §1
The intrinsic MIC of the experimental EPIs was tested with the method described. The 2-fold serial dilution begins with 100 μg/mL of tested compound in the first column of the 96-well plates.

Compound: Cl.Cl.NCCC(N)CNC(=O)c1nc2cc(-c3ccc(F)cc3)ccc2[nH]1 (stereo in doubt) [Example 12, (S)-4-(5-(4-fluorophenyl)-1H-benzo[d]imidazole-2-carboxamido) butane-1,3-diaminium Chloride]
- Enhanced Activity in P. aeruginosa (fold enhancement of antibiotic activity / EPI concentration) ([1]; EPI at 12.5 (μg)): 4×/12.5
- Enhanced Activity in E. coli (fold enhancement of antibiotic activity / EPI concentration) ([2]; EPI at 50 (μg)): 8×/50

Compound: NCCC[C@H](N)CNC(=O)c1nc2cc(-c3ccc(F)cc3)c(-c3ccc(F)cc3)cc2[nH]1 [Example 1, (S)—N-(2,5-diaminopentyl)-5,6-bis(4-fluorophenyl)-1H-benzo[d]imidazole-2-carboxamide Dihydrochloride]
- Enhanced Activity in E. coli (fold enhancement of antibiotic activity / EPI concentration) ([2]; EPI at 6.25 (μg)): 512×/6.25

Compound: NCCC[C@H](N)CNC(=O)c1nc2cc(-c3ccc(F)cc3)cc(-c3ccc(F)cc3)c2[nH]1 [Example 2, (S)—N-(2,5-diaminopentyl)-5,7-bis(4-fluorophenyl)-1H-benzo[d]imidazole-2-carboxamide Dihydrochloride]
- Enhanced Activity in P. aeruginosa (fold enhancement of antibiotic activity / EPI concentration) ([1]; EPI at 12.5 (μg)): 1×/12.5

Compound: NCCC[C@H](N)CNC(=O)c1nc2cc(-c3ccc(F)cc3)cc(C(F)(F)F)c2[nH]1 [Example 3, (S)—N-(2,5-diaminopentyl)-5-(4-fluorophenyl)-7-(trifluoromethyl)-1H-benzo[d]imidazole-2-carboxamide Dihydrochloride]
- MIC of levofloxacin in the presence of EPI ([1]; 6.25 μg/mL of Example 3): 0.016 µg/mL
- reduction of the MIC of levofloxacin relative to absence of EPI ([1]; 6.25 μg/mL of Example 3): 64 fold
- Enhanced Activity in P. aeruginosa (fold enhancement of antibiotic activity / EPI concentration) ([1]; EPI at 12.5 (μg)): 64×/12.5
- MIC (P. aeruginosa ATCC 27853; ATCC27853, read-out: intrinsic MIC of the EPI): 25 µg/mL
- Enhanced Activity in E. coli (fold enhancement of antibiotic activity / EPI concentration) ([2]; EPI at 6.25 (μg)): 8×/6.25

Compound: Cn1c(C(=O)NC[C@@H](N)CCCN)nc2cc(-c3ccc(F)cc3)cc(C(F)(F)F)c21 [Example 4, (S)—N-(2,5-diaminopentyl)-5-(4-fluorophenyl)-1-methyl-7-(trifluoromethyl)-1H-benzo[d]imidazole-2-carboxamide Dihydrochloride]
- Enhanced Activity in P. aeruginosa (fold enhancement of antibiotic activity / EPI concentration) ([1]; EPI at 12.5 (μg)): 8×/12.5
- Enhanced Activity in E. coli (fold enhancement of antibiotic activity / EPI concentration) ([2]; EPI at 50 (μg)): 512×/50

Compound: Cn1c(C(=O)NC[C@@H](N)CCCN)nc2cc(-c3ccc(F)cc3)ccc21 [Example 5, (S)—N-(2,5-diaminopentyl)-5-(4-fluorophenyl)-1-methyl-1H-benzo[d]imidazole-2-carboxamide Dihydrochloride]
- Enhanced Activity in E. coli (fold enhancement of antibiotic activity / EPI concentration) ([2]; EPI at 50 (μg)): 64×/50

Compound: N#Cc1cccc(-c2ccc3[nH]c(C(=O)NC[C@@H](N)CCCN)nc3c2)c1 [Example 7, (S)-5-(3-cyanophenyl)-N-(2,5-diaminopentyl)-1H-benzo[d]imidazole-2-carboxamide Dihydrochloride]
- Enhanced Activity in P. aeruginosa (fold enhancement of antibiotic activity / EPI concentration) ([1]; EPI at 12.5 (μg)): 4×/12.5

Compound: COc1ccc(-c2ccc3[nH]c(C(=O)NC[C@@H](N)CCCN)nc3c2)cc1 [Example 8, (S)—N-(2,5-diaminopentyl)-5-(4-methoxyphenyl)-1H-benzo[d]imidazole-2-carboxamide Dihydrochloride]
- Enhanced Activity in P. aeruginosa (fold enhancement of antibiotic activity / EPI concentration) ([1]; EPI at 12.5 (μg)): 2×/12.5
- Enhanced Activity in E. coli (fold enhancement of antibiotic activity / EPI concentration) ([2]; EPI at 50 (μg)): 2×/50

Compound: NCCC[C@H](N)c1nc2cc(-c3ccc(F)cc3)ccc2[nH]1 [Example 9, (S)-1-(5-(4-fluorophenyl)-1H-benzo[d]imidazol-2-yl)butane-1,4-diamine Dihydrochloride]
- Enhanced Activity in P. aeruginosa (fold enhancement of antibiotic activity / EPI concentration) ([1]; EPI at 25 (μg)): 1×/25
- Enhanced Activity in E. coli (fold enhancement of antibiotic activity / EPI concentration) ([2]; EPI at 50 (μg)): 256×/50

Compound: NCCC[C@H](N)CNC(=O)Cc1nc2ccc(-c3ccc(F)cc3)cc2[nH]1 [Example 10, (S)—N-(2,5-diaminopentyl)-2-(6-(4-fluorophenyl)-1H-benzo[d]imidazol-2-yl)acetamide Dihydrochloride]
- Enhanced Activity in E. coli (fold enhancement of antibiotic activity / EPI concentration) ([2]; EPI at 50 (μg)): 1×/50

Compound: CC(C)(N)C1CN[C@H](CNC(=O)c2nc3ccc(-c4ccc(F)cc4)cc3[nH]2)C1 (stereo partly drawn) [Example 11, N-(((2S)-4-(2-aminopropan-2-yl)pyrrolidin-2-yl)methyl)-6-(4-fluorophenyl)-1H-benzo[d]imidazole-2-carboxamide Dihydrochloride]
- Enhanced Activity in P. aeruginosa (fold enhancement of antibiotic activity / EPI concentration) ([1]; EPI at 12.5 (μg)): 2×/12.5

Compound: Cl.Cl.NC[C@H](N)CNC(=O)c1nc2ccc(-c3ccc(F)cc3)cc2[nH]1 [Example 13, (S)-3-(5-(4-fluorophenyl)-1H-benzo[d]imidazole-2-carboxamido) propane-1,2-diaminium Dihydrochloride]
- Enhanced Activity in P. aeruginosa (fold enhancement of antibiotic activity / EPI concentration) ([1]; EPI at 25 (μg)): 4×/25

Compound: Cl.Cl.N=C(N)NCCC[C@H](N)CNC(=O)c1nc2cc(-c3ccc(F)cc3)ccc2[nH]1 [Example 14, (S)-5-((amino(iminio)methyl)amino)-1-(5-(4-fluorophenyl)-1H-benzo[d]imidazole-2-carboxamido) pentan-2-aminium Chloride]
- Enhanced Activity in P. aeruginosa (fold enhancement of antibiotic activity / EPI concentration) ([1]; EPI at 12.5 (μg)): 4×/12.5
- Enhanced Activity in E. coli (fold enhancement of antibiotic activity / EPI concentration) ([2]; EPI at 50 (μg)): 2×/50

Compound: COc1ccc(-c2ccc3nc(C(=O)NC[C@@H](N)CCN)[nH]c3c2)cc1.Cl.Cl [Example 15, (S)-4-(5-(4-methoxyphenyl)-1H-benzo[d]imidazole-2-carboxamido)butane-1,3-diaminium Dihydrochloride]
- Enhanced Activity in P. aeruginosa (fold enhancement of antibiotic activity / EPI concentration) ([1]; EPI at 12.5 (μg)): 2×/12.5
- Enhanced Activity in E. coli (fold enhancement of antibiotic activity / EPI concentration) ([2]; EPI at 50 (μg)): 2×/50

Compound: CC(C)C(N)CC[C@H](N)CNC(=O)c1nc2cc(-c3ccc(F)cc3)ccc2[nH]1 (stereo partly drawn) [Example 16, N-((2S)-2,5-diamino-6-methylheptyl)-5-(4-fluorophenyl)-1H-benzo[d]imidazole-2-carboxamide Dihydrochloride]
- Enhanced Activity in E. coli (fold enhancement of antibiotic activity / EPI concentration) ([2]; EPI at 6.25 (μg)): 4×/6.25

Compound: NCCC[C@H](N)CNC(=O)c1nc2cc(-c3ccc(F)cc3)ccc2[nH]1 [Example 17, (S)—N-(2,5-diaminopentyl)-5-(4-fluorophenyl)-1H-benzo[d]imidazole-2-carboxamide Dihydrochloride]
- Enhanced Activity in E. coli (fold enhancement of antibiotic activity / EPI concentration) ([2]; EPI at 50 (μg)): 256×/50

Compound: NCCC[C@@H](N)CNC(=O)c1nc2cc(-c3ccc(F)cc3)ccc2[nH]1 [Example 18, (R)—N-(2,5-diaminopentyl)-5-(4-fluorophenyl)-1H-benzo[d]imidazole-2-carboxamide Dihydrochloride]
- Enhanced Activity in E. coli (fold enhancement of antibiotic activity / EPI concentration) ([2]; EPI at 6.25 (μg)): 2×/6.25

Compound: NC[C@@H]1CN[C@H](CNC(=O)c2nc3cc(-c4ccc(F)cc4)ccc3[nH]2)C1 [Example 21, N-(((2S,4R)-4-(aminomethyl)pyrrolidin-2-yl)methyl)-5-(4-fluorophenyl)-1H-benzo[d]imidazole-2-carboxamide Dihydrochloride]
- Enhanced Activity in P. aeruginosa (fold enhancement of antibiotic activity / EPI concentration) ([1]; EPI at 25 (μg)): 8×/25
- Enhanced Activity in E. coli (fold enhancement of antibiotic activity / EPI concentration) ([2]; EPI at 50 (μg)): 256×/50

Compound: NCCC[C@H](N)CNC(=O)c1nc2cc(Br)ccc2[nH]1 [Example 23, (S)-5-bromo-N-(2,5-diaminopentyl)-1H-benzo[d]imidazole-2-carboxamide Hydrogen Chloride Salt]
- Enhanced Activity in E. coli (fold enhancement of antibiotic activity / EPI concentration) ([2]; EPI at 50 (μg)): 2×/50 μg

Compound: Cl.Cl.NCCC[C@H](N)CNC(=O)c1nc2ccc(-c3ccc(N)cc3)cc2[nH]1 [Example 25, (S)-6-(4-aminophenyl)-N-(2,5-diaminopentyl)-1H-benzo[d]imidazole-2-carboxamide Hydrogen Chloride Salt]
- Enhanced Activity in E. coli (fold enhancement of antibiotic activity / EPI concentration) ([2]; EPI at 50 (μg)): 2×/50 μg

Compound: Cl.Cl.Cn1c(C(=O)NC[C@@H](N)CCCN)nc2cc(-c3ccc(F)cc3)c(-c3ccc(F)cc3)cc21 [Example 30, (S)—N-(2,5-diaminopentyl)-5,6-bis(4-fluorophenyl)-1-methyl-1H-benzo[d]imidazole-2-carboxamidehydrogen Chloride Salt]
- Enhanced Activity in E. coli (fold enhancement of antibiotic activity / EPI concentration) ([2]; EPI at 6.25 (μg)): 512×/6.25 μg

Compound: Cl.Cl.NCCC[C@H](N)CNC(=O)c1nc2cc(-c3ccc(F)cc3)c(-c3ccc(F)cc3)cc2n1Cc1ccccc1 [Example 31, (S)-1-benzyl-N-(2,5-diaminopentyl)-5,6-bis(4-fluorophenyl)-1H-benzo[d]imidazole-2-carboxamide Hydrogen Chloride Salt]
- Enhanced Activity in E. coli (fold enhancement of antibiotic activity / EPI concentration) ([2]; EPI at 6.25 (μg)): 8×/6.25 μg

- MIC (P. aeruginosa ATCC 27853; ATCC27853, P. aeruginosa ATCC 27853, read-out: MIC of levofloxacin in the absence of EPI): 1 µg/mL
Compound: C[C@H]1COc2c(N3CCN(C)CC3)c(F)cc3c(=O)c(C(=O)O)cn1c23 [levofloxacin, reference compound]
